Data taken from US20150005347A1, “NITROGEN-CONTAINING HETEROCYCLIC DERIVATIVE HAVING 2-IMINO GROUP AND PEST CONTROL AGENT INCLUDING THE SAME” (MEIJI SEIKA PHARMA CO., LTD., priority 2012, published 2015).
Where two headings read alike, the source gives them in different places.

Columns and labels:
Assay type in all cases: in vivo
[1] = system: susceptible populations of Laodelphax striatella; assay: Soil irrigation test, susceptible populations of Laodelphax striatella; settings: Rate 0.005 mg/pot
Procedure: (§1) A rice seedling in pot culture was subjected to soil irrigation treatment with a drug solution of the compound of the present invention at a predetermined concentration, which had been prepared so as to be a 10% acetone water. […] Thereafter, the larvae were left to stand in a thermostatic chamber (16 hours of light period-8 hours of dark period) at 25° C. […] The test was performed in duplicate.
(§2) Mortality of larvae(%)={number of dead larvae/(number of survived larvae+number of dead larvae)}×100
Further, for comparison, the test against a populations of Laodelphax striatella which is highly susceptible to fipronil was performed by the same method as described above, and the results thereof are shown in Table 45.
In addition, for the origin of test pests, bugs collected within the Kumamoto prefecture in 2006 as the drug resistant Laodelphax striatella, and bugs successively reared indoors for a long time as the susceptible populations of Laodelphax striatella were used.

Ctenocephalides felis = assay: Pest control test of Ctenocephalides felis on the body surface of a dog; settings: 72 h, read-out: mortality of insects
Procedure: Test Example 26 Pest Control Test of Ctenocephalides felis
Three petri dishes with a diameter of 9 cm and a height of 1 cm were adhered to the back of a dog. Compound 1-20 of the present invention was dissolved in ethanol so as to be 5.35 mg/mL, and the mixture was added dropwise to the body surface of the dog in the petri dish. The petri dish was sufficiently dried, and then twenty insects of Ctenocephalides felis were released thereto. Each dog was housed in a cage and reared under conditions of 10 hours of light period and 14 hours of dark period at 23° C. Three days after the release, the petri dishes were detached therefrom to measure the numbers of living and dead insects of Ctenocephalides felis and blood-sucking individuals, and the mortality of insects was calculated according to the following equation.
Mortality of insects(%)={number of dead insects/(number of survived insects+number of dead insects)}×100

Laodelphax striatella = assay: Pest control test of Laodelphax striatella, foliar spray on rice seedling; settings: Laodelphax striatellus, foliar
Procedure: Test Example 6 Pest Control Test of Laodelphax striatella
(§3) A drug solution of the compound of the present invention at a predetermined concentration, which had been prepared so as to be a 50% acetone water (0.05% Tween20 available), was foliar sprayed to a rice seedling in pot culture. After an air drying process, second instar larvae were released thereto. Thereafter, the larvae were left to stand in a thermostatic chamber (16 hours of light period-8 hours of dark period) at 25° C. […] Test in duplicate.
as §2

[2] = system: Frankliniella occidentalis; assay: Pest control test of Frankliniella occidentalis, kidney bean leaf disk foliar spray; settings: Frankliniella occidentalis, foliar
How it was run: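 Kidney bean leaf disks (2.8 cm) sprayed with compound in 50% acetone water with 0.05% Tween20, air-dried, then infested with first instar larvae. Held at 25° C, 16 h light/8 h dark; larval mortality (%) calculated from dead versus total larvae, in duplicate.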

[3] = system: Nilaparvata lugens exhibiting drug resistance to imidacloprid; assay: Foliar spray test, Nilaparvata lugens exhibiting drug resistance to imidacloprid; settings: 144 h, read-out: mortality of larvae
Procedure: Test Example 16 Pest Control Test of Nilaparvata lugens
as §3, with “After an air drying process, second instar larvae were released thereto.” left out
as §2
Further, for the origin of test pests, insects of Nilaparvata lugens collected outdoors within the Fukuoka prefecture in 2005 were used.

[4] = system: susceptible populations of Sogatella furcifera; assay: Soil irrigation test, susceptible populations of Sogatella furcifera
Procedure: as §1, §2
Further, for comparison, the test against a populations of Sogatella furcifera which is highly susceptible to fipronil was performed by the same method as described above, and the results thereof are shown in Table 44.
(§4) In addition, for the origin of test pests, bugs collected within the city of Odawara in 2010 as the drug resistant Sogatella furcifera, and bugs collected within the city of Chigasaki in 1970 and then successively reared indoors for a long time as the susceptible populations of Sogatella furcifera were used.

[5] = system: Sogatella furcifera exhibiting drug resistance to fipronil; assay: Soil irrigation test, Sogatella furcifera exhibiting drug resistance to fipronil
Procedure: Test Example 19 Pest Control Test of Sogatella furcifera
as §1, §2, §4

[6] = system: Trigonotylus caelestialium; assay: Pest control test of Trigonotylus caelestialium, wheat seedling dipping; settings: Trigonotylus caelestialium
How it was run: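 Wheat seedlings (4 days post-sowing) dipped 30 s in compound in 50% acetone water with 0.05% Tween20, air-dried, then exposed to two second-instar larvae in a lidded glass tube at 25° C, water supplied from below. Larval mortality (%) = dead/(dead+survived)×100.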

[7] = system: Nilaparvata lugens exhibiting drug resistance to imidacloprid; settings: soil irrigation
How it was run: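 Imidacloprid-resistant Nilaparvata lugens collected outdoors in Kumamoto (2007); an indoor-reared Kagoshima population served as the susceptible strain. Potted rice seedlings soil-drenched with compound in 10% acetone water at set concentrations; larvae held at 25° C, 16 h light/8 h dark. Mortality (%) = dead/(survived + dead) × 100, tested in duplicate.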

[8] = 72 h, read-out: mortality of larvae
[9] = read-out: % Mortality, Test Example7 Frankliniella occidentalis
[10] = read-out: % Mortality, Test Example8 Trigonotylus caelestialium

Q: How did the “Insecticidal effects against Laodelphax striatella (mortality of larvae %), Susceptible populations six days after the treatment” value [1] turn out when `FC(F)(F)C(=S)/N=c1\ccccn1Cc1ccc(Cl)nc1` [Compound 1-20, N-[1-((6-chloropyridin-3-yl)methyl)pyridin-2(1H)-ylidene]-2,2,2-trifluoroethanethioamide] was run?
A: 85%

Q: What about the mortality at 5350 µg/mL (Ctenocephalides felis) of the same compound?
A: 100%

Q: And the mortality at 1.25 ppm (Laodelphax striatella; 144 h, read-out: mortality of larvae)?
A: ≥ 80%

Q: What about the mortality at 1.25 ppm (Laodelphax striatella; read-out: % Mortality, Test Example6 Laodelphax striatella) of the same compound?
A: 95%

Q: And the mortality at 100 ppm [2, 8]?
A: ≥ 80%

Q: And the mortality at 500 ppm [2, 8]?
A: ≥ 80%

Q: What about the mortality at 20 ppm [2, 9] of the same compound?
A: 50%

Q: And the mortality at 100 ppm [2, 9]?
A: 80%

Q: What about the mortality at 20 ppm [3] of the same compound?
A: ≥ 80%

Q: And the “Insecticidal effects against Sogatella furcifera (mortality of larvae %), Susceptible populations six days after the treatment” value ([4]; Rate 0.005 mg/pot)?
A: 75%

Q: And the “Insecticidal effects against Sogatella furcifera (mortality of larvae %), Susceptible populations six days after the treatment” value ([4]; Rate 0.01 mg/pot)?
A: 88%

Q: And the “Insecticidal effects against Sogatella furcifera (mortality of larvae %), Drug resistant populations six days after the treatment” value ([5]; Rate 0.005 mg/pot)?
A: 53%

Q: What about the “Insecticidal effects against Sogatella furcifera (mortality of larvae %), Drug resistant populations six days after the treatment” value ([5]; Rate 0.01 mg/pot) of the same compound?
A: 88%

Q: And the “insecticidal effects against drug resistant Sogatella furcifera” value ([5]; fipronil-resistant)?
A: high insecticidal effects

Q: What about the “mortality of larvae against drug resistant populations compared with susceptible populations of Sogatella furcifera” value ([5]; fipronil-resistant vs susceptible) of the same compound?
A: equivalent mortality of larvae

Q: And the mortality at 10 ppm [6, 8]?
A: ≥ 80%

Q: What about the mortality at 50 ppm [6, 8] of the same compound?
A: ≥ 80%

Q: And the mortality at 2 ppm [6, 10]?
A: 50%

Q: What about the mortality at 10 ppm [6, 10] of the same compound?
A: 100%

Q: What about the mortality at 50 ppm [6, 10] of the same compound?
A: 100%

Q: What about the “insecticidal effects against drug resistant Nilaparvata lugens” value ([7]; imidacloprid-resistant) of the same compound?
A: high insecticidal effects

Q: And the “mortality of larvae against drug resistant populations compared with susceptible populations of Nilaparvata lugens” value ([7]; imidacloprid-resistant vs susceptible)?
A: equivalent mortality of larvae
